# Results: PubChem BioAssay AID1996
# Conditions: buffer; pH 7.4; 200.0 µM
row,solubility kinetic [µg/mL],SMILES
1,> 49.1,O=C(CSc1ncccn1)N1CCC(Cc2ccccc2)CC1
2,1.7,Cn1c(CC(=O)Nc2ccccc2)cc2ccccc21
3,> 49.6,O=C(NCC1CCCO1)c1cccc(NC(=O)c2cccs2)c1 (centres undefined)
4,> 47.3,O=C(CSc1nc2ccccc2[nH]1)NCc1ccc(F)cc1
5,34.3,COc1ccc(CC(=O)Nc2ccc3nc(SC)sc3c2)cc1OC
6,10.9,CCN(CC)c1ccc(CNc2nc3ccccc3n2CC)cc1
7,23.5,c1ccc2nc3c(nc2c1)OCC1CCCCN31 (centres undefined)
8,42.2,CC(=O)C1C(c2ccc(C)cc2)c2c(noc2C)CC1(C)O (centres undefined)
9,> 49.1,Fc1ccc(-c2nnc(N3CCOCC3)c3ccccc23)cc1F
10,28.3,COc1ccc(CCNC2CCc3ccccc3C2)cc1 (centres undefined)
11,41.8,O=C1CN(C(=O)/C=C/c2ccc(Br)cc2)CCN1
12,37.6,Nc1ccccc1Nc1c(F)c(F)nc(F)c1Cl
13,1.1,O=C(Cn1cccc1C(=O)c1ccccc1)NCc1ccc(Cl)cc1
14,> 61.3,O=C(O)CC(NS(=O)(=O)c1ccc2c(c1)OCCO2)c1ccccc1[N+](=O)[O-] (centres undefined)
15,> 43.8,Cc1cc(=O)[nH]c(SCC(=O)c2ccc(O)c(O)c2)n1
16,11.6,Cc1ccc(NC(=O)CNC(=O)Cc2cccc3ccccc23)nc1
17,3.1,CCCn1c(=O)c2[nH]c(C3CCCC3)nc2n(CCC)c1=O
18,13.2,CCC1(c2ccc(F)cc2)NC(=O)N(CC(=O)NC2CCCC(C)C2C)C1=O (centres undefined)
19,5.3,O=C(CSc1nc2ccccc2c(=O)n1CCCN1CCOCC1)Nc1ccc(Br)cc1

row,solubility kinetic [µg/mL],SMILES
1,16.6,O=[N+]([O-])c1cnccc1Nc1ccc(Cl)cc1
2,> 36.6,CC(=O)N/N=C(\C)c1cccc(C(F)(F)F)c1
3,> 57.6,CN(Cc1c(F)cccc1Cl)C(=O)C1=CC=CN2CCS(=O)(=O)N=C12
4,33,O=C(CCCc1ccccc1)NCCCc1ccccc1
5,6.5,CC(=O)Nc1ccc(Nc2ncnc3ccccc23)cc1
6,3.5,O=[N+]([O-])c1ccc(N2CCN(c3ccc(F)cc3)CC2)cn1
7,13.4,Cc1ccc(NC(=O)C2CCCN(C(=O)Nc3ccc(F)cc3)C2)cc1 (centres undefined)
8,> 37.8,O=S(=O)(/C=C/c1ccccc1)N1CCNCC1
9,> 48.7,O=c1[nH]c(-[n+]2ccccc2)c(/C=N/N=C(\[O-])c2ccccc2)s1
10,> 48,Cc1ccc[n+](CC(=O)Nc2nc3ccccc3s2)c1.[Cl-]
11,> 49.9,O=C1Nc2ccc(S(=O)(=O)NCC3CCCO3)c3cccc1c23 (centres undefined)
12,42.3,O=C1NC(=Nc2ccccc2Cl)SC1(CO)CO
13,> 45.5,O=C(CSc1ncccn1)NCc1ccc2c(c1)OCO2
14,19.6,O=C(NC1CCCCC1)N1CCN(c2ccc(Cl)cc2)CC1
15,40.9,COc1ccc(CNc2ccc(N3CCOCC3)cc2)cc1
16,17.2,O=C(CCC(=O)NC12CC3CC(CC(C3)C1)C2)NC1CCCCC1
17,2.4,COc1ccc(S(=O)(=O)NCCOc2ccccc2)cc1F
18,> 46.4,CC(NCCC1(C(C)C)CCOC(C)(C)C1)c1cccs1 (centres undefined)
19,> 44.2,CC(=O)Nc1ccc(C(=O)N2CCCc3ccccc32)cc1

# Continued, molecule first:
row,SMILES,solubility kinetic [µg/mL]
1,COc1ccc(C(CNC(=O)c2cccc(S(=O)(=O)N3CCc4ccccc43)c2)N(C)C)cc1 (centres undefined),39.3
2,CC(C)(C)OC(=O)NC1CC2CCCC(C1)N2Cc1ccccc1 (centres undefined),> 49.6
3,C#CCOC(=O)C[N+](C)(C)CC=C.[Cl-],> 32.7
4,CC(=O)NCc1ccc(-c2csc(-c3cccs3)n2)cc1,4.8
5,O=C(Nc1ccc(Br)cn1)C1CCN(S(=O)(=O)c2cccs2)CC1,< 0.3
6,CSCCC(NC(=O)c1ccccc1)C(=O)OCC(=O)NCc1ccco1 (centres undefined),> 58.6
7,COc1ccc(OC)c(/C=C/c2[nH]c(=O)[nH]c(=O)c2[N+](=O)[O-])c1,35.1
8,CC1CCCN(S(=O)(=O)c2cccc3nonc23)C1 (centres undefined),13.2
9,O=C1Nc2ccc(S(=O)(=O)NCCCO)c3cccc1c23,> 46
10,Cc1nc(N(C)C)c2sc(=S)n(Cc3ccccc3)c2n1,< 0.2
11,Cc1csc(NC(=O)C2CSC3(C)CCC(=O)N23)n1 (centres undefined),> 44.6
12,COc1ccc(Cn2cc(F)c(=O)n(C)c2=O)cc1[N+](=O)[O-],42.8
13,Cc1oc(-c2cccs2)nc1CN1CCC(C(=O)N2CCCC2)CC1,> 53.9
14,Cc1ccc(N/C=C(\C#N)S(=O)(=O)c2ccccc2)cc1,0.7
15,N#C/C(=C\c1ccc(Cl)c([N+](=O)[O-])c1)c1ccccn1,2.5
16,CCn1c(C)nnc1SCC(=O)Nc1ccccc1Cl,> 46.6
17,CCN(CC)S(=O)(=O)c1cc(NC(=S)NC(=O)C2CCCC2)ccc1C,6.1
18,O=C(Cc1ccccc1Cl)N1CCN(c2ccccn2)CC1,> 47.4
19,O=[N+]([O-])c1ccc(-c2cn3c(n2)CCC3)cc1,25.5
20,CN(C(=O)Cc1c(C(=O)O)n(C)c2ccccc12)c1ccc(Cl)cc1,> 53.5
21,O=C(/C=C/c1ccco1)Nc1ccc2c(c1)OCCO2,> 40.7
22,O=[N+]([O-])c1ccc(NCCOc2ccccc2Cl)nc1,1.7
23,CCCCCOc1ccc(C(=O)OC(C)C(=O)NCc2ccco2)cc1 (centres undefined),2.9

row,SMILES,solubility kinetic [µg/mL]
1,COc1ccccc1C1C([N+](=O)[O-])=C(N)Oc2c1c(=O)oc1ccccc21 (centres undefined),2.2
2,CCCNC(=O)C12CCC(C)(C(=O)O1)C2(C)C (centres undefined),> 35.9
3,O=C(CCSCc1ccccc1Cl)NCc1cccs1,32.4
4,OC(CN1CCCCC1)Cn1c2ccccc2c2ccccc21 (centres undefined),45.1
5,Cc1cc(C(=O)NCc2ccco2)c2ccccc2n1,> 39.9
6,CCOC(=O)c1ccc2[nH]c3c(c2c1)CCCC3O (centres undefined),> 38.9
7,Cc1ccc2c(Cl)c(C(=O)NC3CC3)sc2c1,< 0.6
8,O=C(CNC1CCCCC1)Nc1cccc(C(F)(F)F)c1,> 45
9,COc1ccccc1NC(=O)c1ccc(NC(=O)COC(=O)c2cncc(Br)c2)cc1,10
10,COc1cccc(OC)c1C(=O)NCCOc1cc(C)cc(C)c1,28.3
11,CC(C)(Oc1ccc(CCNC(=O)c2ccc(Cl)cc2)cc1)C(=O)O,> 54.3
12,O=C(Cn1ccnc1)c1ccc(Cl)cc1,31.5
13,COc1cccc(C2CCCCN(C)C2=O)c1 (centres undefined),32.7
14,COc1ccc(CNC2c3ccccc3-c3ccccc32)cc1OC,31.4
15,C=C(C)Cn1c(CCNC(=O)c2ccco2)nc2ccccc21,> 46.4
16,CCN1CCN(CCc2nc3cc([N+](=O)[O-])ccc3n2C)CC1,> 47.6
17,CCn1cc(C(=O)N2CCCCC2)c2ccccc21,> 38.5
18,CNC(=O)C(NC(=O)c1ccccc1)=C(C)C,> 34.8
19,O=C(NCc1ccco1)C1CC(c2ccc(Cl)cc2)=NO1 (centres undefined),2.9
20,COc1ccc(NC(=O)c2cc(-c3ccccn3)nc3ccccc23)c(OC)c1,3.8
21,O=C(NCc1cccnc1)C1CCN(S(=O)(=O)c2cc([N+](=O)[O-])ccc2Cl)CC1,> 65.8
22,OC(CCNCCc1c[nH]c2ccccc12)C(F)(F)Cl (centres undefined),> 45.4
23,CC(C)(C)N(Cc1ccccc1)C(=O)CN1C(=O)c2ccccc2C1=O,0.8
